The values that follow come from ChEMBL document CHEMBL1201862, “PubChem BioAssay data set” (2004).

Among the test systems are MDA-MB-435; SF-295; RXF 393; UACC-257; OVCAR-8; ACHN; K562; EKVX; DU-145; LOX IMVI; OVCAR-5; CCRF-CEM; TK-10; M14; MCF7; SK-MEL-28; HOP-62; SK-OV-3.
What all share (test): NCI anticancer screen, dose series, 48 h

Structures are written as SMILES.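 The compound was tested at five concentrations on cells cultured in 96-well plates, with a 48-hour exposure period. GI50: concentration for 50% inhibition of growth.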 The source made the active and inactive calls. Cut-off read from the data, not from the text of the source: active = GI50 up to about 1.1 µM and inactive = higher.

As to `COc1cc(C2C(Cl)C(=O)N2NC(=O)c2ccccc2O)cc(OC)c1OC` (stereo not drawn), the GI50 in the assay on MDA-MB-435 was 6.03 µM (inactive); in the assay on SF-295, 1.8 µM (inactive); in the assay on RXF 393, > 10 µM (inactive); with UACC-257, 1.89 µM (inactive); with OVCAR-8, 2.47 µM (inactive); with ACHN, 3.79 µM (inactive). For the same compound, the GI50 was 2.95 µM (inactive) with K562; 5.27 µM (inactive) with EKVX; 0.284 µM (active) in the assay on DU-145; 3.7 µM (inactive) in the assay with LOX IMVI; 5.96 µM (inactive) in the assay with OVCAR-5; 1.65 µM (inactive) in the assay on CCRF-CEM. Besides, the results for the GI50 in the assay on TK-10, in the assay on M14 and in the assay with MCF7 were 8.51 µM (inactive), 6.31 µM (inactive) and 2.9 µM (inactive), respectively.
With `Cc1cc(C(=O)CSC(=S)SC(C)(C)C)ccc1Cl`, the GI50 was 23.7 µM (inactive) with MDA-MB-435; 19.8 µM (inactive) in the assay with SK-MEL-28; 17.7 µM (inactive) in the assay on SF-295; 13.4 µM (inactive) in the assay on RXF 393; 18.2 µM (inactive) with UACC-257; 32.1 µM (inactive) with OVCAR-8. Also, the GI50 with ACHN was 25 µM (inactive); in the assay with K562 it was 31.2 µM (inactive); in the assay on HOP-62 it was 17.4 µM (inactive); with EKVX, 24.5 µM (inactive); with SK-OV-3 it was 34.1 µM (inactive); in the assay on DU-145, 26.5 µM (inactive). For the same compound, the GI50 is 19.9 µM (inactive) with LOX IMVI; 21.9 µM (inactive) in the assay on OVCAR-5; 25.2 µM (inactive) in the assay on TK-10; 16.4 µM (inactive) in the assay on M14; 25.6 µM (inactive) in the assay on MCF7.
In the case of `Cc1c(C(=O)CC(=O)C(=O)Nc2cc(Cl)ccc2Cl)[n+]([O-])c2ccccc2[n+]1[O-]`, the GI50 is 43.1 µM (inactive) with SK-MEL-28; > 100 µM (inactive) in the assay on SF-295; 53.8 µM (inactive) in the assay with RXF 393; 34.8 µM (inactive) in the assay with UACC-257; 30.7 µM (inactive) in the assay with OVCAR-8; > 100 µM (inactive) in the assay on ACHN. In addition, the GI50 with K562 was 72.4 µM (inactive); in the assay on HOP-62 it was > 100 µM (inactive); in the assay on EKVX, 37.8 µM (inactive); in the assay on SK-OV-3 it was > 100 µM (inactive); in the assay with LOX IMVI, 27.4 µM (inactive); in the assay on OVCAR-5 it was > 100 µM (inactive). Moreover, the GI50 with CCRF-CEM was 73.8 µM (inactive); in the assay with TK-10 it was > 100 µM (inactive); in the assay on M14, 25.3 µM (inactive).
As for `CCN1CCCCC(=N\O)/C(=N/O)CCCC1`, the GI50 with MDA-MB-435, in the assay on SK-MEL-28, with SF-295, in the assay on RXF 393, with UACC-257 and in the assay with OVCAR-8 was > 100 µM (inactive) in each case. Further, the GI50 in the assay with ACHN was > 100 µM (inactive); in the assay with HOP-62, > 100 µM (inactive); in the assay on EKVX, 26.1 µM (inactive); in the assay with SK-OV-3 it was > 100 µM (inactive); in the assay with DU-145 it was > 100 µM (inactive); in the assay with LOX IMVI, > 100 µM (inactive). The GI50 in the assay with OVCAR-5, in the assay on CCRF-CEM, in the assay with TK-10, with M14 and with MCF7 was > 100 µM (inactive) throughout.
For the compound `c1csc(-c2ccc(-c3ccc(-c4ccc(-c5cccs5)s4)s3)s2)c1`, the GI50 with MDA-MB-435 was > 100 µM (inactive); with SF-295 it was 40.6 µM (inactive); in the assay on RXF 393 it was 56.5 µM (inactive); in the assay with UACC-257, > 100 µM (inactive); with OVCAR-8, > 100 µM (inactive); in the assay on ACHN, > 100 µM (inactive). The GI50 was 47.1 µM (inactive) in the assay with K562; 34 µM (inactive) in the assay on HOP-62; > 100 µM (inactive) in the assay on EKVX; > 100 µM (inactive) in the assay on SK-OV-3; > 100 µM (inactive) with DU-145; > 100 µM (inactive) in the assay on OVCAR-5. For the same compound, the GI50 in the assay on CCRF-CEM is 26.5 µM (inactive); in the assay on TK-10, > 100 µM (inactive); with M14, 26.9 µM (inactive); with MCF7, 8.36 µM (inactive).
As to `COC(=O)C12OCC34C(CC5C(C)C6=CC(=O)OC6=CC5(C)C3C(O)C1O)OC(=O)C(O)C24` (stereo not drawn), the GI50 with SK-MEL-28 is 0.169 µM (active); in the assay on SF-295 it was 1.53 µM (inactive); in the assay with RXF 393 it was 0.493 µM (active); in the assay on UACC-257, 1.5 µM (inactive); with OVCAR-8 it was 0.935 µM (active); in the assay on ACHN, 0.895 µM (active). Moreover, the GI50 in the assay on K562 is 0.205 µM (active); in the assay on HOP-62, 0.78 µM (active); with EKVX, 0.716 µM (active); in the assay with SK-OV-3, 5.16 µM (inactive); in the assay on LOX IMVI it was 0.157 µM (active); in the assay on OVCAR-5, 2.56 µM (inactive). The GI50 with TK-10 was 1.42 µM (inactive).
`CCOC(=O)C1(C(=O)OCC)C[C@@H](C)[C@@H](O)C1`: the GI50 with MDA-MB-435, in the assay on SK-MEL-28, in the assay with SF-295, in the assay with RXF 393, in the assay with UACC-257 and with OVCAR-8 was > 100 µM (inactive) in each case. In addition, the GI50 in the assay with ACHN, with K562, in the assay on HOP-62, in the assay with EKVX, with SK-OV-3 and with DU-145 was > 100 µM (inactive) each time. The GI50 in the assay with LOX IMVI, with OVCAR-5, in the assay on CCRF-CEM, with TK-10, with M14 and with MCF7 was > 100 µM (inactive) in each case.
Turning to `CC(O)CCCCC(O)CCC[C@H](O)[C@H]1CCC([C@H]2CCC([C@@H](O)CCCCCCCCCCCCC3=C[C@H](C)OC3=O)O2)O1` (stereo partly drawn), the GI50 in the assay on MDA-MB-435 is 9.18 µM (inactive); with SK-MEL-28 it was 13.5 µM (inactive); in the assay on SF-295, 9.29 µM (inactive); in the assay on RXF 393, 12.1 µM (inactive); with UACC-257, 9.33 µM (inactive); in the assay with OVCAR-8, 10.1 µM (inactive). For the same compound, the GI50 with ACHN was 10.2 µM (inactive); in the assay on HOP-62 it was 10.6 µM (inactive); in the assay with EKVX it was 8.15 µM (inactive); in the assay with SK-OV-3 it was 11.7 µM (inactive); in the assay on DU-145, 12 µM (inactive); in the assay on OVCAR-5, 11.4 µM (inactive). In addition, the GI50 in the assay with CCRF-CEM is 9.38 µM (inactive); with TK-10, 9.48 µM (inactive); in the assay with M14, 11.4 µM (inactive); in the assay with MCF7, 5.25 µM (inactive).
For the compound `Oc1cc(-c2cccc(Cl)c2)nc2ncccc12`, the GI50 was < 0.01 µM (active) in the assay on MDA-MB-435; 0.183 µM (active) with SK-MEL-28; 0.0533 µM (active) with SF-295; 0.219 µM (active) in the assay with RXF 393; 84.3 µM (inactive) in the assay with UACC-257; 0.377 µM (active) with OVCAR-8. In addition, the GI50 was 3.27 µM (inactive) in the assay on ACHN; 0.0208 µM (active) with K562; 0.253 µM (active) in the assay on HOP-62; 0.163 µM (active) in the assay with SK-OV-3; 0.644 µM (active) in the assay on DU-145; 0.133 µM (active) in the assay on LOX IMVI. For the same compound, the GI50 in the assay on CCRF-CEM was 0.0689 µM (active); in the assay on TK-10 it was 24.3 µM (inactive); with M14, 0.0845 µM (active); with MCF7, 0.122 µM (active).
